The values below come from PMC6791832, “In vitro inhibition of human red blood cell acetylcholinesterase (AChE) by temephos-oxidized products” (Scientific Reports, 2019).

Data set [1] concerns the target T1, human red blood cell acetylcholinesterase (RBC AChE) (Homo sapiens, UniProt P22303).
T1 construct: from tissue; host or cells: whole blood (hemolyzed, 1:100 in Triton X-100) from one healthy adult volunteer
Kind of data set: Human RBC AChE inhibition assay (Ellman method, hemolyzed whole blood). It counts as biochemical. To be noted: for IC50: hemolyzed samples preincubated with compound for 15 min at 37 °C, three independent experiments in duplicate. The method, then: RBC AChE and BuChE assays were performed on whole human blood and serum, respectively. In this study, all methods were conducted in accordance with guidelines and regulations to comply with the GLP and chemical wastes management established by the Cinvestav-IPN. The sampling protocol was approved by the Bioethics Commission of Nayarit State, Mexico (CEBN/011/2017). The subject gave written informed consent for their participation and blood samples were collected early in the morning. A human blood sample was collected from a healthy adult volunteer from Mexico City.
RBC AChE activity was evaluated according to the method reported by Ellman et al.[12] with some modifications. Briefly, fresh human whole blood samples were diluted (1:100) with Triton X-100 (0.03% in phosphate buffer 0.1 M, pH 7.4). The enzymatic assay media consisted of 500 µL diluted blood, 1 mL of phosphate buffer 0.1 M, pH 7.4, 0.05 mL of DTNB (10 mM), and 5 µL of ethopropazine (6 mM), which were mixed and incubated at 37 °C for 10 min. The reaction was started by the addition of 25 µL of substrate ATCh (28.3 mM) and absorbance was monitored at 436 nm during 3 min with a UV-Vis spectrophotometer (Thermo Scientific GENESYS 10S). AChE activity was corrected for hemoglobin (Hb) content and was reported in U/g Hb. The Hb content was determined at 540 nm using the Drabkin reagent. The molar extinction coefficient of the TNB hydrolysis product was ε = 10,600 M^−1 cm^−1.
To determine the inhibitory effect on human RBC AChE activity, the hemolyzed samples were preincubated with Tem and its metabolites for 15 min at 37 °C. The RBC AChE activity was evaluated as previously described by Bernal-Hernández et al.[13] in three independent experiments conducted in duplicate. Stock solutions of Tem metabolites were individually prepared in ethanol (Tem-SO, 4.14 mM; Tem-dox-SO, 4.44 mM, and Tem-dox-SO2, 4.20 mM). These solutions were used to prepare other diluted solutions in phosphate buffer (0.1 M, pH 7.4) to achieve the following concentrations: 0.1 to 10 μM Tem-SO, 0.05 to 5 μM Tem-dox-SO, and 0.02 to 2 μM Tem-dox-SO2. […] Log IC50, IC50, and R^2 values were estimated from the normalized AChE or BuChE activity with respect to the control assays (absence of the metabolite) and plotted as a function of the logarithm of metabolite concentration using Prism 8 software (GraphPad Software).
On the technique in general: Ellman's reagent forms a yellow product with free thiols.

The conditions of data set [2]: rats, orally administered; cited from earlier work.

T1 sequence (P22303 32-617 isoform P22303-2 limits assumed): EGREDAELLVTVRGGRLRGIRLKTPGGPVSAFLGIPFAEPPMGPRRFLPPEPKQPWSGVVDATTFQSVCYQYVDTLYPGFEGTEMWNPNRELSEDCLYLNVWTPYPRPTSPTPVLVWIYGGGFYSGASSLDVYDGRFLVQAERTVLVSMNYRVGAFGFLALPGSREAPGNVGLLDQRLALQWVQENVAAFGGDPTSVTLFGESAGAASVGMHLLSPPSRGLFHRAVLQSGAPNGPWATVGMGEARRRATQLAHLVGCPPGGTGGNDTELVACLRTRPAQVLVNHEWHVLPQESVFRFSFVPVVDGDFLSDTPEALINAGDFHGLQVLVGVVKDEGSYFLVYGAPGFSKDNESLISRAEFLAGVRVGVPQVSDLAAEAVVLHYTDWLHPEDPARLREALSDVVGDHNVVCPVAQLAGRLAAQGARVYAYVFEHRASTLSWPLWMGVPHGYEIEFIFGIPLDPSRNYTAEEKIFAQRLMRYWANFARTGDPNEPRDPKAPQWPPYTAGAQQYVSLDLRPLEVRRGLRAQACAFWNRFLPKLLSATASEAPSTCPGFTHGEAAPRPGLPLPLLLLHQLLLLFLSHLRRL

As to `COP(=S)(OC)Oc1ccc(Sc2ccc(OP(=S)(OC)OC)cc2)cc1` [Tem, O,O,O′,O′-tetramethyl O,O′-thiodi-p-phenylene bis(phosphorothionate)], in data set [1] (even at higher concentrations than 50 µM), the “effect on human RBC AChE activity” value is “did not exhibit any effect”. The “absorbed into the bloodstream” value in data set [2] is “at least 40%”.

By IC50 is commonly meant the midpoint of a concentration-inhibition curve. As for `COP(=O)(OC)Oc1ccc([S+]([O-])c2ccc(OP(=O)(OC)OC)cc2)cc1` [Tem-dox-SO], in data set [1], the IC50 amounted to 0.0977 µM.

Consider `COP(=S)(OC)Oc1ccc([S+]([O-])c2ccc(OP(=S)(OC)OC)cc2)cc1` [Tem-SO], for which the IC50 in data set [1] is 0.553 µM.

Consider `COP(=O)(OC)Oc1ccc(S(=O)(=O)c2ccc(OP(=O)(OC)OC)cc2)cc1` [Tem-dox-SO2], for which the IC50 in data set [1] is 0.0249 µM.
